Here are results for 19 compounds from patent US5968795A, “Biaryl acetylenes as inhibitors of matrix metalloproteases” (Bayer Corporation, priority 1997, dated 1999).

In test [1] the target is T1, Recombinant Human CHO Stromelysin (MMP-3) (Homo sapiens, UniProt P08254).
T1 construct: made in house; host or cells: CHO cells (as described by Housley et al., J. Biol. Chem. 268, 4481, 1993)
Description: P218 quenched fluorescence assay for MMP inhibition: MMP-3. The format is biochemical. The note with it: P218 substrate 6 μM, pH 6.5, 25 min at 37° C.; read-out: MMP-3 Fluorogenic IC-50. The text has this: (§1) P218 Quenched Fluorescence Assay for MMP Inhibition:
(§2) The P218 quenched fluorescence assay (Microfluorometric Profiling Assay) is a modification of that originally described by Knight, et al., FEBS Lett. 296, 263, 1992 for a related substance and a variety of matrix metalloproteinases (MMPs) in cuvettes. The assay was run with each invention compound and the three MMPs, MMP-3, MMP-9 and MMP-2, analyzed in parallel, adapted as follows for a 96-well microtiter plate and a Hamilton AT® workstation.
(§3) P218 Fluorogenic Substrate:
(§4) P218 is a synthetic substrate containing a 4-acetyl-7-methoxycoumarin (MCA) group in the N-terminal position and a 3-[2,4-dinitrophenyl]-L-2,3-diaminopropionyl (DPA) group internally. This is a modification of a peptide reported by Knight (1992) that was used as a substrate for matrix metalloproteinases. Once the P218 peptide is cleaved (putative clip site at the Ala-Leu bond), the fluorescence of the MCA group can be detected on a fluorometer with excitation at 328 nm and emission at 393 nm. P218 is currently being produced BACHEM exclusively for Bayer. P218 has the structure:
(§5) H-MCA-Pro-Lys-Pro-Leu-Ala-Leu-DPA-Ala-Arg-NH2 (MW 1332.2)
Recombinant Human CHO Stromelysin (MMP-3)
Recombinant Human CHO Pro-MMP-3: Human CHO pro-stromelysin-257 (pro-MMP-3) was expressed and purified as described by Housley, et al., J. Biol. Chem. 268, 4481, 1993.
Activation of Pro-MMP-3: Pro-MMP-3 at 1.72 μM (100 μg/mL) in 5 mM Tris at pH 7.5, 5 mM CaCl2, 25 mM NaCl, and 0.005% Brij-35 MMP-3) activation buffer) was activated by incubation with TPCK (N-tosyl-(L)-phenylalanine chloromethyl ketone) trypsin (1:100 w/w to pro-MMP-3) at 25° C. for 30 min. The reaction was stopped by addition of soybean trypsin inhibitor (SBTI; 5:1 w/w to trypsin concentration). This activation protocol results in the formation of 45 kDa active MMP-3, which still contains the C-terminal portion of the enzyme.
(§6) Hamiltion Microlab AT Plus: The MMP-Profiling Assay is performed robotically on a Hamilton MicroLab AT Plus®. The Hamilton is programmed to: (1) serially dilute up to 11 potential inhibitors automatically from a 2.5 mM stock in 100% DMSO; (2) distribute substrate followed by inhibitor into a 96 well Cytofluor plate; and (3) add a single enzyme to the plate with mixing to start the reaction. Subsequent plates for each additional enzyme are prepared automatically by beginning the program at the substrate addition point, remixing the diluted inhibitors and beginning the reaction by addition of enzyme. In this way, all MMP assays were done using the same inhibitor dilutions.
(§7) Millipore Cytofluor II. Following incubation, the plate was read on a Cytofluor II fluorometric plate reader with excitation at 340 nm and emission at 395 nm with the gain set at 80.
(§8) Microfluorometric Reaction Buffer (MRB): Dilution of test compounds, enzymes, and P218 substrate for the microfluorometric assay were made in microfluorometric reaction buffer consisting of 50 mM 2-(N-morpholino)ethanesulfonic acid (MES) at pH 6.5 with 10 mM CaCl2, 150 mM NaCl, 0.005% Brij-35 and 1% DMSO.
(§9) MMP Microfluorometric Profiling Assay. The assay is done with a final substrate concentration of 6 μM P218 and approximately 0.5 to 0.8 nM MMP with variable drug concentrations. The Hamilton is programmed to serially dilute up to 11 compounds from a 2.5 mM stock (100% DMSO) to 10x the final compounds concentrations in the assay. Initially, the instrument delivers various amounts of microfluoromentric reaction buffer (MRB) to a 96 tube rack of 1 ml Marsh dilution tubes. The instrument then picks up 20 μl of inhibitor (2.5 mM) from the sample rack and mixes it with a buffer in row A of the Marsh rack, resulting in a 50 μM drug concentration. The inhibitors are then serially diluted to 10, 5, 1, 0.2, 0.05 and 0.01 μM. […]

Test [2] deals with T2, Human Recombinant Gelatinase B (MMP-9) (Homo sapiens, UniProt P14780).
T2 construct: made in house; host or cells: baculovirus protein expression system
T2 sequence (P14780 107-707 limits assumed): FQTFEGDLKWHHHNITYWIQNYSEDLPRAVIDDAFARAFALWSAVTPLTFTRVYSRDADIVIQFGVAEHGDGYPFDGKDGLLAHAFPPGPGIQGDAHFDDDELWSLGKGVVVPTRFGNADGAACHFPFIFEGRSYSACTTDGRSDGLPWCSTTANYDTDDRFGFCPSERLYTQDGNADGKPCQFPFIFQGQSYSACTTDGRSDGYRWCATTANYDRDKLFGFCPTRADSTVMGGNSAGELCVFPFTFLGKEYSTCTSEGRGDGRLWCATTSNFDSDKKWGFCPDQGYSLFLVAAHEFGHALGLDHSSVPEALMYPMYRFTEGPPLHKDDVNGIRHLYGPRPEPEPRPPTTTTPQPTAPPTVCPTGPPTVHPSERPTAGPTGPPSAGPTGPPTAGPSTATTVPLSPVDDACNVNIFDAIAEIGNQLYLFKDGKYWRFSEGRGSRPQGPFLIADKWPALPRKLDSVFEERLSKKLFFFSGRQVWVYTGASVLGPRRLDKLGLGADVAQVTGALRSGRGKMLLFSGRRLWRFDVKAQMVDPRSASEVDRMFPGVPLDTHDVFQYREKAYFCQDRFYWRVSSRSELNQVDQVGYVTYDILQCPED
As to the kind of experiment: P218 quenched fluorescence assay for MMP inhibition: MMP-9. The format is biochemical. The note with it: P218 substrate 6 μM, pH 6.5, 25 min at 37° C.; for MMP-9 Fluorogenic, I (percent inhibition): inhibitor concentration not given; for IC50: read-out: MMP-9 Fluorogenic IC-50.
Description: as §1, §2, §3, §4, §5
Preparation of Human Recombinant Pro-Gelatinase B (MMP-9):
Recombinant Human Pro-MMP-9: Human pro-gelatinase B (pro-MMP-9) derived from U937 cDNA as described by Wilhelm, et al. J. Biol. Chem. 264, 17213, 1989 was expressed as the full-length form using a baculovirus protein expression system. The pro-enzyme was purified using methods previously described by Hibbs, et al. J. Biol. Chem. 260, 2493, 1984.
Activation of Pro-MMP-9: Pro-MMP-2 20 μg/ml in 50 mM Tris at pH 7.4, 10 mM CaCl2, 150 mM NaCl, and 0.005% Brij-35 (MMP-9 activation buffer) was activated by incubation with 0.5 mM p-aminophenylmercuric acetate (APMA) for 3.5 h at 37° C. The enzyme was dialyzed against the same buffer to revmove the APMA.
as §6, §7, §8, §9

The target in test [3] is T3, Human Recombinant Gelatinase A (MMP-2) (Homo sapiens, UniProt P08253).
T3 sequence (P08253 110-660): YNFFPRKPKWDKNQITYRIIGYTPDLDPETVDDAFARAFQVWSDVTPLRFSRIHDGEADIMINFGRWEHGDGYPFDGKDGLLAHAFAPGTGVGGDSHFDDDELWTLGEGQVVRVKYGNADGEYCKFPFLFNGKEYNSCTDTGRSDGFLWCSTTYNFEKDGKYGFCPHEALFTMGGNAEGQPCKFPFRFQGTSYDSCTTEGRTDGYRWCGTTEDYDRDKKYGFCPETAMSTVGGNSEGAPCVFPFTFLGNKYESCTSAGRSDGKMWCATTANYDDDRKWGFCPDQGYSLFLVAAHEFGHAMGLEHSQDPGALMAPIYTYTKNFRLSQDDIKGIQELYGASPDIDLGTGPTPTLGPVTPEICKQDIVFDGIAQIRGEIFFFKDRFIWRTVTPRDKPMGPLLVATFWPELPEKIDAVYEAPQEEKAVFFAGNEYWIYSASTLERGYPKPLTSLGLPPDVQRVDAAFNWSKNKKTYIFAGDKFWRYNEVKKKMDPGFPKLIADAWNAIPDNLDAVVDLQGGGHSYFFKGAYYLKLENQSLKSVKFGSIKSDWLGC
As to the kind of experiment: P218 quenched fluorescence assay for MMP inhibition: MMP-2. Type of test: biochemical.

The conditions of test [4]: Child, et al., J. Pharm. Sci. 66, 466, 1977; cited from earlier work.
Setting [5] is: P218 substrate 6 μM, pH 6.5, 25 min at 37° C., read-out: MMP-2 Fluorogenic IC-50.

Where two headings read alike, the source gives them in different places.

T1 sequence (P08254 100-477): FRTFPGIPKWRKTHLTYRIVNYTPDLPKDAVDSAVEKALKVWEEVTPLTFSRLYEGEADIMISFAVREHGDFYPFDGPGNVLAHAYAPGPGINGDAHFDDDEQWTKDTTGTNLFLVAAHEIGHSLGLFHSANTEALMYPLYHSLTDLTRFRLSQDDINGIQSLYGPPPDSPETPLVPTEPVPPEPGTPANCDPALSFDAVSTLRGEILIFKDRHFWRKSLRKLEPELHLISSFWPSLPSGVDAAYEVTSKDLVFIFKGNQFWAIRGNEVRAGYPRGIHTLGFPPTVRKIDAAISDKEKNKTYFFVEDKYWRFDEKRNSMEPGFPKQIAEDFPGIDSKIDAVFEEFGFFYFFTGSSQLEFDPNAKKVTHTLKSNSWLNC

For `O=CCCCC#Cc1ccc(-c2ccc(C(=O)CC(CCCc3ccccc3)C(=O)O)cc2)cc1` (stereo not drawn) [Compound XI, λ-oxo-4'-(5-oxo-1-pentynyl)-α-(3-phenylpropyl)-[1,1'biphenyl]-4-butanoic acid], the IC50 in test [1] amounted to 1730 nM; in test [3] (setting [5]), 596 nM. Besides, the “MMP-9 Fluorogenic, I (percent inhibition)” value in test [2] is given as 24%.
Regarding `CCCN(CC#Cc1ccc(-c2ccc(C(=O)CC(CCCc3ccccc3)C(=O)O)cc2)cc1)CCC` (centres unmarked) [Compound V], the IC50 stood at 327 nM in test [1], 2630 nM in test [2] and 235 nM in test [3] (setting [5]).
Consider `O=C(CC(CCCc1ccccc1)C(=O)O)c1ccc(-c2ccc(C#Cc3cccc(O)c3)cc2)cc1` (centres unmarked) [XIV], for which the IC50 in test [1] worked out at 125 nM; in test [3] (setting [5]), 85 nM. In test [2], the “MMP-9 Fluorogenic, I (percent inhibition)” value came to 46%.
For `COCC#Cc1ccc(-c2ccc(C(=O)CC(CCCc3ccccc3)C(=O)O)cc2)cc1` (stereo not drawn) [IV, 4'-(3-methoxy-1-propynyl)-λ-oxo-α-(3-phenylpropyl)-[1,1'-biphenyl]-4-butanoic acid], the values for the IC50 in test [1], in test [2] and in test [3] (setting [5]) were 38 nM, 704 nM and 21 nM, respectively.
Take `O=C(O)CC(C(=O)c1ccc(-c2ccccc2)cc1)c1ccccc1` (centres unmarked) [LXXVII]: the “anti-inflammatory activity (in words)” value in test [4] is “inactive”.
As for `O=C(CC(CCCc1ccccc1)C(=O)O)c1ccc(-c2ccc(C#CCCCCO)cc2)cc1` (centres unmarked) [XII], the IC50 was determined as 56.6 nM in test [1], 614 nM in test [2] and 36 nM in test [3] (setting [5]).
For the compound `O=C(C[C@H](CCCc1ccccc1)C(=O)O)c1ccc(-c2ccc(C#CCO)cc2)cc1` [II, S-4'-(3-hydroxy-1-propynyl)-λ-oxo-α-(3-phenylpropyl)-[1,1'-biphenyl]-4-butanoic acid], the figures for the IC50 in test [1] and in test [3] (setting [5]) were 2180 nM and 252 nM, respectively. For the same compound, the “MMP-9 Fluorogenic, I (percent inhibition)” value in test [2] was determined as 35%.
Turning to `O=C(CC(CCN1C(=O)c2ccccc2C1=O)C(=O)O)c1ccc(-c2ccc(C#CCOCc3ccccc3)cc2)cc1` (stereo not drawn) [Compound XV, 1,3-dihydro-1,3-dioxo-α-[2-oxo-2-[4'-[3(phenylmethoxy)-1-propynyl][1,1'-biphenyl]-4-yl]ethyl]-2H-isoindole-2-butanoic acid], the IC50 was 11 nM in test [1], 40 nM in test [2] and 5 nM in test [3] (setting [5]).
On to `CCOC(=O)OCC#Cc1ccc(-c2ccc(C(=O)CC(CCCc3ccccc3)C(=O)O)cc2)cc1` (stereo not drawn) [Compound VII, 4'-[3-[(ethoxycarbonyl)oxy]-1-propynyl]-λ-oxo-α-(3-phenylpropyl)-[1,1'-biphenyl]-4-butanoic acid], for which the IC50 in test [1] was found to be 67 nM; in test [2], 2460 nM; in test [3] (setting [5]) it was 103 nM.
For the compound `O=C(CC(C(=O)O)c1ccccc1)c1ccc(-c2ccccc2)cc1` (centres unmarked) [XLIX], the “anti-inflammatory activity (in words)” value in test [4] is “inactive”.
Take `CC(CC(=O)c1ccc(-c2ccccc2)cc1)C(=O)O` (centres unmarked) [compound XLVII]: the “anti-inflammatory activity (in words)” value in test [4] was “inactive”.
As to `O=C(CC(CCCc1ccccc1)C(=O)O)c1ccc(-c2ccc(C#Cc3ccccc3)cc2)cc1` (stereo not drawn) [XIII, λ-oxo-4'-(phenylethynyl)-α-(3-phenylpropyl)-[1,1'-biphenyl]-4-butanoic acid], the IC50 in test [1] is 405 nM; in test [3] (setting [5]) it was 245 nM.
Regarding `CC(=O)OCC#Cc1ccc(-c2ccc(C(=O)CC(CCCc3ccccc3)C(=O)O)cc2)cc1` (stereo not drawn) [Compound VI, 4'-[3-(acetyloxy)-1-propynyl]-λ-oxo-α-(3-phenylpropyl)-[1,1'-biphenyl]-4-butanoic acid], the IC50 in test [1] amounted to 36 nM; in test [2], 834 nM; in test [3] (setting [5]) it was 14 nM.
For `O=C(CC(CCCc1ccccc1)C(=O)O)c1ccc(-c2ccc(C#CCCO)cc2)cc1` (stereo not drawn) [VIII, 4'-(4-hydroxy-1-butynyl)-λ-oxo-α-(3-phenylpropyl)-[1,1'-biphenyl]-4-butanoic acid], the IC50 in test [1] was 32 nM; in test [2], 122 nM; in test [3] (setting [5]) it was 6 nM.
On to `O=C(CC(CCCc1ccccc1)C(=O)O)c1ccc(-c2ccc(C#CCO)cc2)cc1` (racemic) [Compound I], for which the IC50 was determined as 21 nM in test [1], 106 nM in test [2] and 4 nM in test [3] (setting [5]).
Take `CC(=O)OCCC#Cc1ccc(-c2ccc(C(=O)CC(CCCc3ccccc3)C(=O)O)cc2)cc1` (centres unmarked) [IX]: the values for the IC50 in test [1], in test [2] and in test [3] (setting [5]) were 57 nM, 542 nM and 37 nM, respectively.
As to `O=C(CC(CCN1C(=O)c2ccccc2C1=O)C(=O)O)c1ccc(-c2ccc(C#CCO)cc2)cc1` (centres unmarked) [Compound XVI], the IC50 in test [1] is 4 nM; in test [2], 2 nM; in test [3] it was 1 nM.
Turning to `O=C(O)CCC#Cc1ccc(-c2ccc(C(=O)CC(CCCc3ccccc3)C(=O)O)cc2)cc1` (stereo not drawn) [Compound X, 4'-(4-carboxy-1-butynyl)-λ-oxo-α-(3-phenylpropyl)-[1,1'-biphenyl]-4-butanoic acid], the IC50 is 203 nM in test [1] and 108 nM in test [3] (setting [5]). In test [2], the “MMP-9 Fluorogenic, I (percent inhibition)” value is listed as 27%.
Take `O=C(C[C@@H](CCCc1ccccc1)C(=O)O)c1ccc(-c2ccc(C#CCO)cc2)cc1` [III]: the values for the IC50 in test [1], in test [2] and in test [3] (setting [5]) were 5 nM, 37 nM and 1 nM, respectively.
